From patent US10716306B2, “N-alkylsulfonyl indoline compound, agricultural and horticultural insecticide comprising the compound, and method for using the insecticide” (Nihon Nohyaku Co., Ltd., priority 2016, dated 2020)

Tests used:
Laodelphax striatellus = test: Insecticidal test on Laodelphax striatellus; format: in vivo; settings: 192 h, rice seedlings dipped 30 seconds, ten 3rd-instar larvae, 8 days after the inoculation, read-out: insecticidal efficacy (corrected mortality rate)
Description: Insecticidal Test on Laodelphax striatellus
The condensed heterocyclic compounds represented by the general formula (1) of the present invention or salts thereof were separately dispersed in water and diluted to 500 ppm. Rice plant seedlings (variety: Nihonbare) were dipped in the agrochemical dispersions for 30 seconds. After air-dried, each seedling was put into a separate glass test tube and inoculated with ten 3rd-instar larvae of Laodelphax striatellus, and then the glass test tubes were capped with cotton plugs. At 8 days after the inoculation, the numbers of surviving larvae and dead larvae were counted, the corrected mortality rate was calculated according to the formula shown below, and the insecticidal efficacy was evaluated according to the criteria shown below. Corrected mortality rate (%)=100×(Survival rate in a non-treatment plot−Survival rate in a treatment plot)/Survival rate in a non-treatment plot [Math. 2] Corrected Mortality Rate A: the corrected mortality rate is 100%. B: the corrected mortality rate is 90 to 99%. C: the corrected mortality rate is 80 to 89%. D: the corrected mortality rate is 50 to 79%.

Plutella xylostella = test: Insecticidal test on Plutella xylostella; format: in vivo; settings: 144 h, Chinese cabbage seedlings with laid eggs dipped about 30 seconds, 25° C., 6 days after the dip treatment, read-out: insecticidal efficacy (corrected mortality rate)
Description: Insecticidal Test on Plutella xylostella
Adults of Plutella xylostella were released onto Chinese cabbage seedlings and allowed to lay eggs thereon. At 2 days after the release of the adults, the Chinese cabbage seedlings with laid eggs were dipped for about 30 seconds in agrochemical dispersions diluted to 500 ppm, each of which contained a different kind of indoline compound represented by the general formula (1) of the present invention as an active ingredient. After air-dried, the seedlings were kept in a thermostatic chamber at 25° C. At 6 days after the dip treatment, the number of hatched larvae per plot was counted, the mortality rate was calculated according to the formula shown below, and the insecticidal efficacy was evaluated according to the criteria of Test Example 2. This test was conducted in triplicate using 10 adults of Plutella xylostella per plot. Corrected mortality rate (%)=100×(Number of hatched larvae in a non-treatment plot−Number of hatched larvae in a treatment plot)/Number of hatched larvae in a non-treatment plot [Math. 3]

| Compound | mortality at 500 ppm (Laodelphax striatellus) [%] | mortality at 500 ppm (Plutella xylostella) [%] |
| --- | --- | --- |
| CCS(=O)(=O)N1c2ccccc2CC1c1nc2cc(SC(F)(F)F)ccc2o1 (centres unmarked) [Compound 3-1, 2-(1-ethylsulfonyl-indolin-2-yl)-5-trifluoromethyl-thiobenzo[d]oxazole] | 100 | 100 |
| CCS(=O)(=O)N1c2ccc(C3CC3)cc2CC1c1nc2cc(SC(F)(F)F)ccc2o1 (centres unmarked) [Compound 3-19, 2-(1-ethylsulfonyl-5-cyclopropyl-indolin-2-yl)-5-trifluoromethyl-thiobenzo[d]oxazole] | 100 | 100 |
| CCS(=O)(=O)N1c2ccccc2CC1c1nc2cc(C(F)(F)F)cnc2n1C (centres unmarked) [Compound 2-1, 2-(1-ethylsulfonyl-indolin-2-yl)-3-methyl-6-trifluoromethyl-3H-imidazo[4,5-b]pyridine] | 100 | 100 |
| CCS(=O)(=O)N1c2ccc(I)cc2CC1c1nc2cc(SC(F)(F)F)ccc2o1 (centres unmarked) [Compound 3-5, 2-(1-ethylsulfonyl-5-iodoindolin-2-yl)-5-trifluoromethyl-thiobenzo[d]oxazole] | 100 | 100 |
